Experimental data published in patent US20240208915A1, “A SOLID STATE FORM OF TAFAMIDIS AND A PROCESS FOR ITS PREPARATION” (Quimica Sintetica, S.A., priority 2021, published 2024).
Like-named read-outs stand apart in the source and are kept apart here.

Key:
[1] = cited from earlier work
[2] = XRPD pattern after keeping at storage condition in a close vial; assay type: physicochemical; conditions: storage condition (room temperature, RH not more than 80%)
Experimental: (§1) The instruments and methods used to characterize the crystals obtained in the examples are as follows: • X-ray powder diffraction analyses (XRPD) were performed on a Bruker D8 Advance X-ray powder diffractometer at about 25° C. and ambient humidity (e.g. 25-35%), using a Cu Kα tube (40 kV, 40 mA, λ=1.5418 Å) as the X-ray source, equipped with a linear Lynxeye XE-T position sensitive detector set at 250 mm from the sample. A Nickel filter (0.0125 mm thickness) was mounted on the primary beam. Data collection was made in coupled mode, theta-theta configuration over an angular range between at least 3° 2 theta and 40° 2theta and a scan step of 0.02°. Fine powder samples were placed in a flat, thin layer in the 12 mm×0.2 mm cavity of a silicon low background plate fixed on a sample holder fitting an autosampler position. The instrument was previously calibrated by means of NIST SRM 1976b. Data acquisition was performed by means of Bruker Diffraction Measurement Center software; data elaboration was performed by means of Crystal Impact Match! or Bruker Diffrac. EVA software.

[3] = Chemical and physical stability over storage (summary statements)
Description: “Storage condition” referred to 2-(3,5-dichlorophenyl)-1,3-benzoxazole-6-carboxylic acid and its salt means that all the forms are stored in a close vessel at room temperature, ambient pressure and at relative humidity (RH) degree not more than 80%.

[4] = Stability studies: XRPD to evaluate any change in crystalline form; assay type: physicochemical
Experimental: as §1
(§2) Vials containing 100 mg each of alpha form of present invention are stored at the following conditions, wherein RH is referred to relative humidity: • room Temperature (RT) and 80% RH, open vial • 40° C. and 75% RH, open vial
(§3) The sample were analysed before the storage (initial data), 8 days, 15 days and 4 weeks using X-ray powder diffractogram (XRPD) to evaluate any change in crystalline form and using HPLC to measure the chemical purity.
(§4) 700 mg of tafamidis form 4 of obtained according to present invention are stored at the following conditions, wherein RH is referred to relative humidity: • 40° C. and 75% RH, type A container.
(§5) The samples were analysed before the storage (initial data), after 1 month, 3 months, 6 months using X-ray powder diffractogram (XRPD) to evaluate any change in crystalline form and using HPLC to measure the chemical purity.

[5] = Stability studies: HPLC to measure the chemical purity; assay type: physicochemical
Experimental: as §2, §3, §4, §5

Q: With `O=C(O)c1ccc2nc(-c3cc(Cl)cc(Cl)c3)oc2c1` [amorphous, 2-(3,5-dichlorophenyl)-1,3-benzoxazole-6-carboxylic acid] as the compound, how does the “solid form conversion upon storage” value ([1]; 1 week at 70° C. and 75% relative humidity) read?
A: converts into crystalline form 4

Q: Which results are given for `O=C(O)c1ccc2nc(-c3cc(Cl)cc(Cl)c3)oc2c1` [form 1, 2-(3,5-dichlorophenyl)-1,3-benzoxazole-6-carboxylic acid]?
A: change of XRPD pattern ([2]; 8 months): does not change its XRPD pattern; thermodynamic stability of the form ([1]; room temperature): thermodynamically stable form; chemical and physical stability (XRPD pattern, degradation) ([3]; kept at storage condition): chemically and physically stable

Q: Which “transformation into a different crystalline form (XRPD)” value ([4]; 40° C., 75% RH, type A container, after 6 months) does the source give for `O=C(O)c1ccc2nc(-c3cc(Cl)cc(Cl)c3)oc2c1` [form 4, 2-(3,5-dichlorophenyl)-1,3-benzoxazole-6-carboxylic acid] here?
A: no signs of transformation into a different crystalline form

Q: What about the “change of XRPD pattern” value ([2]; 10 months) of the same compound?
A: does not change its XRPD pattern

Q: And the “thermodynamic stability of the form” value ([1]; high temperature)?
A: more stable

Q: And the “chemical and physical stability” value ([3]; stored for several months at 40° C. and 75% RH)?
A: chemically and physically stable

Q: With `O=C(O)c1ccc2nc(-c3cc(Cl)cc(Cl)c3)oc2c1` [form I, 2-(3,5-dichlorophenyl)-1,3-benzoxazole-6-carboxylic acid] as the compound, how does the “solid form conversion upon drying” value ([1]; vacuum dryer at 100-160° C. (WO 2020/232325, examples 16 to 20)) read?
A: convert into form 4

Q: For `O=C(O)c1ccc2nc(-c3cc(Cl)cc(Cl)c3)oc2c1` [form alpha, 2-(3,5-dichlorophenyl)-1,3-benzoxazole-6-carboxylic acid], which “transformation into a different crystalline form (XRPD)” value ([4]; 40° C., 75% RH, open vial, after 4 weeks) is on record?
A: no signs of transformation

Q: What about the “transformation into a different crystalline form (XRPD)” value ([4]; room temperature, 80% RH, open vial, after 4 weeks) of the same compound?
A: no signs of transformation

Q: And the “chemical purity by HPLC versus initial profile” value ([5]; 40° C., 75% RH, open vial, up to 4 weeks)?
A: does not present a significant worsening of the purity

Q: And the “chemical purity by HPLC versus initial profile” value ([5]; 40° C., 75% RH, type A container, up to 6 months)?
A: does not present a significant worsening of the purity

Q: What about the “chemical purity by HPLC versus initial profile” value ([5]; room temperature, 80% RH, open vial, up to 4 weeks) of the same compound?
A: does not present a significant worsening of the purity

Q: And the “chemical and physical stability (polymorphic form, chemical purity)” value ([3]; storage between 15 to 60° C. for several weeks at different degree of humidity)?
A: chemically and physically stable
